The values below come from patent US20260240807A1, “UROLITHINS FOR IMPROVING CARDIAC FUNCTION AND HEALTH” (Amazentis SA, priority 2022, published 2026).

In assay [1] the test system is Wistar male rats with myocardial infarction (permanent LAD occlusion). The assay is described as follows: Echocardiography and heart mass after myocardial infarction (LAD ligation). The assay is classed as in vivo, rat. The note with it: MI rats, 25 mg/kg daily by gavage for 2 months starting one week after MI, vs MI vehicle. The method, then: The goal of the study is to assess urolithin A treatment effect on heart function after myocardial infarction. […] Myocardial infarction (MI) was induced in 6-week old Wistar male rats from groups 1, 2, and 3 (Table 3), by permanent occlusion of Left Anterior Descending coronary artery (ligation was performed at Do).
Rats were anesthetized with an intraperitoneal (IP) injection of Medetomidine (0.5 mg/kg) and ketamine (50 mg/kg), intubated and ventilated at 10 mL/kg tidal volume and 70-80 cycles/min. Body temperature were maintained between 36.5° C. and 37.5° C. via a thermoregulated heating pad connected to a rectal probe. Rats were placed in supine position, chest-shaved and prepared for standard surgical conditions. A left lateral thoracotomy was carefully performed so as to expose the heart. Then, a suture was placed around the LAD (4/0 Silk, Ethicon), around 2 mm below the left atrium and close to the interventricular junction, in order to obtain infarct size (IS) near 40% of the total left ventricular (LV) area. Chest was closed, air was expelled from the rib cage to avoid pneumothorax and quick reanimation was performed using atipamezole hydrochloride (IM, 0.5 mg/ml, Zoetis).
Animals from group 1 were subjected to the same protocol as MI groups. However, after the left lateral thoracotomy exposing the heart, the rib cage were closed without passing the suture thread around LAD.
Urolithin A or vehicle were administered by gavage at 25 mg/kg starting one week after myocardial infraction. Heart and plasma samples were collected at each time point. Ejection Fraction (EF), Fractional Shortening (FS), Isovolumic relaxation time (IVRT) were measured by echocardiography at 1 month and 2 month time points to evaluate heart function. […]
Rats were anesthetized with 4% isoflurane in 50% oxygen-50% air mixture and maintained with 2% isoflurane during the procedure. […] Body temperature was monitored and maintained between 36.5-37.5° C. via a rectal probe connected to the thermoregulated heating pad.
Standard B-mode (Brightness-mode) and M-mode (Motion-mode) images of the heart were obtained in the two-dimensional (2D) parasternal long axis view (PSLA). LV parameters will be measured and calculated as the mean of 3 consecutive cardiac cycles by a single blinded trained operator. • Left Ventricular function LV function is calculated using the LV dimensions parameters previously described. • FS=fractional shortening=[(LVIDd−LVIDs)/LVIDd]*100. It is a calculation based on the difference of dimensions between systole and diastole measured in M-mode. […] It is a calculation based on the difference of volumes between systole and diastole measured in B-mode and M-mode. […]

The subject of assay [2] is gene sets (Cellular Components) linked to mitochondrial function in heart tissue. The assay can be described thus: RNA-seq gene set enrichment analysis of heart sections, MI rats. The format is in vivo, rat. As to conditions: MI+UA vs MI rats, 25 mg/kg PO. How it is done: Heart sections from rats in the groups described in FIG. 1 (Example 1) have been prepared using a microtome, deparaffinized and RNA extracted using the following kit (RNAeasy FFPE 76504, Qiagen). Upon extraction, RNA was quality controlled with Agilent Fragment Analyzer System.
Library preparation was performed using Strand-specific cDNA library and following the steps here indicated: • rRNA depletion. • mRNA fragmentation. • Random primed cDNA synthesis (strand-specific) • Adapter ligation and adapter specific PCR amplification RNA-seq run was executed with the NovaSeq6000 using S4 flowcells with 2×150 bp.
QC and preprocessing of raw sequencing reads was performed using an in-house QC pipeline. […] High quality RNA-seq read pairs were mapped to the Ensembl rat reference genome
Reads with a minimum PHRED score of 15, a minimum length of 15 bp, and a minimum unqualified percent limit of 40 (40%) were retained for downstream analysis. […]
Gene Set Enrichment Analysis (GSEA) (Subramanian, et al. Proc Natl Acad Sci USA 2005, 102 (43), 15545-50) was performed for characterizing complex relations of gene expression changes with gene ontologies (cellular components), under different biological conditions. […] Gene ranking information is transformed to pathway level to assign statistical significance for each analyzed gene set. […]

Assay [3] deals with Old C57BL/6 mice. The assay is described as follows: Echocardiography in old mice (age-related heart dysfunction). The note with it: old mice (26 months), chow diet with urolithin A 50 mg/kg for 2 months. The format is in vivo, mouse. The method, then:
(§1) The goal of the study is to evaluate urolithin treatment effect age-related heart dysfunction. […] Old C57BL/6 mice (26 months) were used as model to reproduce natural decline in heart function with aging. Chow diet with and without urolithin A was administered for 2 months at 50 mg/kg. Post-mortem heart muscles, skeletal muscles, and plasma samples post-mortem were collected at the end of the study. Ejection Fraction (EF), Fractional Shortening (FS) were measured by echocardiography. Muscle contractility was also measured. Analysis of both heart and skeletal muscle function were conducted at the end of the study.

Assay [4] has as its system Old C57BL/6 mice. The assay can be described thus: Skeletal muscle function (muscle contractility) in old mice. As to conditions: old mice (26 months), chow diet with urolithin A 50 mg/kg for 2 months. The assay is classed as in vivo, mouse. How it is done:
as §1

In assay [5] the test system is heart mitochondria of old C57BL/6 mice. The assay can be described thus: Transmission electron microscopy of heart mitochondria in old mice. The format is in vivo, mouse. The note with it: 50 mg/kg by gavage for 2 months, vs old vehicle. The method, then: (§2) The goal of the study was to evaluate urolithin treatment effect on age-related heart dysfunction. Old C57BL/6 mice (24 months at the end of the study) were used as model to reproduce natural decline in heart function with aging and administered by gavage for 2 months with either Urolithin A at 50 mg/kg (Old UA) or vehicle (Old Vehicle). Young mice (18 weeks-old at the end of the study) were administered with vehicle for 2 months. Post-mortem heart muscles, were collected at the end of the study.
Muscle samples from animals as described in example 2 were fixed in 2% glutaraldehyde solution 0.1 M Sorenson's buffer (pH 7.3). These samples were later postfixed in 1% osmium tetroxide for 8 min [pulse microwaved (MW), 100 watts (W)] and rinsed in distilled H2O (3×150 W 40 s per step). Samples were dehydrated in a graded series of acetone (25%; 50%; 75%; 3× 100%; 150 W 40 seconds per step) before being impregnated with increasing concentrations of epoxy resin (TAAB medium resin) in acetone (25%; 50%; 75%; 3×100%; 300 W 3 min per step). The samples were then embedded in 100% fresh resin and left to polymerize at 60° C. in a conventional oven for a minimum of 24 h.
All resin blocks were trimmed using a razor blade to form a trapezoid block face. Sections were cut in a longitudinal or transverse orientation on an ultramicrotome (Wolf et al., 2019) using a diamond knife. Semithin sections (0.5 μm) were stained with toluidine blue and viewed on a light microscope (LM) to verify orientation of tissue. Ultrathin sections (70 nm) were then cut and picked up onto copper grids. Sections from blocks were stained with 1% uranyl acetate (30 min) and 3% lead citrate (7 min). All sections were examined using a HT7800 120 kV TEM (Hitachi). Digital micrographs were captured using an EMSIS Xarosa CMOS Camera with Radius software.
These samples were later postfixed in 1% osmium tetroxide during 1 h, dehydrated within an increasing concentration of acetone. […]
Individual heart mitochondria from 3 Young vehicle, 3 Old vehicle and 3 Old UA O-AL mice were manually traced in transverse orientations using ImageJ software (NIH) (https://imagej.nih.gov/ij/) and to quantify the following morphological and shape descriptors: area (μm2), perimeter (μm), circularity 4π×(area/perimeter2), aspect ratio ((major axis)/(minor axis)): the aspect ratio being a measure of the length to width ratio, form factor ((perimeter)/(4π×surface)): a measure sensitive to the complexity and the branched appearance of the mitochondria, Feret's diameter (the longest distance (μm) between two points of the mitochondria studied) and minimum Feret diameter (corresponds to the smallest diameter of the mitochondria) (Picard et al., 2012). […]

Assay [6] has as its system gene sets (Cellular Components) repressed with aging in heart. The assay is described as follows: RNA-seq gene set enrichment analysis of heart, old mice. The assay is classed as in vivo, mouse. The note with it: old mice treated with UA 50 mg/kg for 2 months vs old vehicle. The method, then: as §2
RNA-seq analysis from samples derived from example 3 has been performed as described for example 1.
A Gene set enrichment analysis was performed looking at gene set (i.e., biological pathways) belonging to the category “Cellular Components”.

Assay [7] relates to mitochondrial complex II enzyme SDH. The assay is described as follows: Succinate dehydrogenase activity staining of heart sections. The format is in vivo, mouse. The note with it: old mice, 50 mg/kg by gavage for 2 months, vs old vehicle control. How it is done: as §2
Hearts in OCT were cut into sections of […] using a cryostat. Sections were then incubated in a solution containing nitroblue tetrazolium (1.5 mM), sodium succinate (130 mM), phenazine methosulphate (0.2 mM), and sodium azide (0.1 mM) for 6 min at room temperature. The reaction was stopped by two washes in PBS. Slides were mounted using Fluoromont mounting medium (Thermofisher, 00-4958-02). All samples were processed successively using the same incubation solution ensuring that they underwent the exact same experimental conditions. Images of the tissues were taken with a bright field microscope. The intensity of the staining was analyzed with Image J.

Consider `O=c1oc2cc(O)ccc2c2ccc(O)cc12` [Urolithin A], for which, in assay [1], the “cardiac hypertrophy, calculated as heart weight over tibia length” value is recorded as “reduces”; the “diastolic function, measured as isovolumetric relaxation time” value is on record as “improves”; the “systolic dysfunction measured as Ejection fraction” value was “significantly improves”; the “systolic dysfunction measured as Fractional shortening” value is on record as “significantly improves”. Also, in assay [2], the “gene sets repressed with MI (mitochondrial protein-containing complex, respirasome, nucleoids, peroxisomes), normalized enrichment score” value is listed as “induced”. Besides, the “increase in fractional shortening, after high-workload” value in the assay on Old C57BL/6 mice [3] (after high-workload) is given as “+39%”. Further, the “increase in fractional shortening, basally” value in the assay on Old C57BL/6 mice [3] (basal) is recorded as “+32%”. The skeletal muscle function entry with Old C57BL/6 mice [4] is “significantly prevents age-related decline”. In assay [5] (heart mitochondria), the cristae number result is on record as “significantly increases” and the cristae volume density result is recorded as “significantly increases”. Moreover, the “mitophagy events, quantified as number of mitolysosomes” value in assay [5] (heart) is recorded as “significantly increases”. For the same compound, the mitochondrial area result in assay [5] (heart, to levels compared to young animals) was “significantly increased”. Also, in assay [6], the “gene sets repressed with aging (respirasome, sarcolemma), normalized enrichment score” value is given as “induced”. Moreover, in assay [7], the “SDH enzymatic activity in the heart” value is on record as “significantly increases”.
